In a melting point compilation (Tetko et al.) one finds melting point data, which are given here for 87 molecules.

Consider `Nc1ccc(S(=O)(=O)Nc2ccc(Cl)cc2)cc1`, for which the melting point fell in the range of 180 to 182 °C.
For the molecule `CN(C)c1ncnc2nc[nH]c12`, the melting point was 256 to 258 °C.
Consider `Cc1ccc(-c2nnc(N)[nH]2)cc1`, for which the melting point lay within 206 to 208 °C.
Molecule `c1ccc2sc(C3CCNCC3)nc2c1` displayed a melting point of 127 to 129 °C.
For the molecule `O=Cc1cccnc1Cl`, the melting point was in the range of 50 to 54 °C.
Under `NCC1(CO)CCOCC1` stands 54 to 56 °C; under `NC(=O)CSc1ccccc1C(=O)O`, 210 to 212 °C.
With `OC(CNCc1ccccc1)c1ccsc1` (configuration not stated), the melting point is 78 to 80 °C.
`CS(=O)(=O)N1CCCC(Cl)C1` (configuration not stated) returned a melting point of 54 to 56 °C.
`NNc1ccc([N+](=O)[O-])cc1S(=O)(=O)Nc1ccccc1Cl` showed a melting point of 220 to 229 °C.
Turning to `O=C(O)c1cccc(=O)n1CCOc1ccccc1Cl`, the melting point lay in the range of 118 to 120 °C.
With `Cc1cc(C(=O)O)sc1C=O` the figure was 204 to 206 °C; with `O=C(O)c1cc(-c2cccs2)nc2onc(C3CC3)c12`, 236 to 238 °C.
Molecule `CCN1CCCC1CN1CC(C(=O)O)CC1=O` (configuration not stated) had a melting point of 166 to 168 °C.
As for `Cc1ccc(CC(=O)O)o1`, the melting point is 56 to 58 °C.
Turning to `CC1(C)COC2(CCNCC2)OC1`, the melting point lay within 62 to 64 °C.
In the case of `CN(c1ccccc1)c1ccc(C=O)cc1[N+](=O)[O-]`, the melting point fell in the range of 95 to 97 °C.
With `Nc1nc(Cl)c(C=O)c(N2CCOCC2)n1`, the melting point lay in the range of 173 to 175 °C.
With `CC(=O)CCc1ccc(OCCC(=O)O)cc1` the figure was 102 to 104 °C.
`CCOC(OCC)c1cc(-c2cccc(F)c2)[nH]n1` yielded a melting point of 82 to 84 °C.
`O=c1ccc2c([nH]1)CCC2` gave a melting point of 35 to 39 °C.
`Cc1c(C(=O)O)cc(S(N)(=O)=O)cc1[N+](=O)[O-]` gave a melting point of 172 to 174 °C.
As to `NNc1nc2cc(C(F)(F)F)ccc2s1`, the melting point lay in the range of 219 to 221 °C.
`O=S(=O)(Cl)c1ccc2nc(Cl)sc2c1` came in with a melting point of 98 to 100 °C.
In turn, `N#Cc1c(N)sc2c1CCCCCC2` had a melting point of 104 to 106 °C.
Take `Cc1nc(-c2ccccc2)sc1N`: the melting point lay within 117 to 119 °C.
`CC(Cl)C(=O)N1CCCC(C(N)=O)C1` (configuration not stated) registered a melting point of 114 to 116 °C.
`O=S(CCCl)c1ccccc1` (configuration not stated) returned a melting point of 34 to 36 °C.
In the case of `Nc1cccc(S(=O)(=O)Nc2cn[nH]c2)c1`, the melting point lay in the range of 194 to 196 °C.
`NS(=O)(=O)Cc1ccc(C(=O)O)cc1` came in with a melting point of 275 to 277 °C.
`O=C(O)c1ccc(OCCO)cc1`: the melting point lay in the range of 177 to 179 °C.
Under `O=c1nc(Cl)sc2ccccc12` stands 108 to 110 °C; under `Cc1nncn1-c1cccc(N)c1`, 109 to 111 °C.
For `Nc1cccc(Oc2ccncc2)c1`, the melting point fell in the range of 107 to 109 °C.
On to `Nc1nnc(-c2cccc(Br)c2)[nH]1`, for which the melting point lay in the range of 219 to 221 °C.
For the molecule `CC1CCC(NS(=O)(=O)c2ccc(Cl)c([N+](=O)[O-])c2)CC1` (configuration not stated), the melting point was 101 to 103 °C.
As for `CCc1cc(=O)[nH]c(-c2ccnc(Cl)c2)n1`, the melting point fell in the range of 217 to 219 °C.
Consider `CC(CO)CC(C)(C)N` (configuration not stated), for which the melting point was 64 to 66 °C.
In turn, `Nc1ccc(Cl)c(S(=O)(=O)Nc2cccc(Cl)c2)c1` displayed a melting point of 158 to 160 °C.
For `O=c1c2cc(Cl)ccc2nc2n1CCC2`, the melting point is 180 to 182 °C.
With `Clc1ccc(Cn2cncn2)cn1` the figure was 61 to 63 °C.
The molecule `OC(Cn1cncn1)c1ccc(Cl)cc1` (configuration not stated) had a melting point of 111 to 113 °C.
The molecule `CCCN(CC)C(=O)c1ccc(C(=O)O)cc1` came in with a melting point of 121 to 123 °C.
The molecule `Cc1cc(F)cc(C(=O)O)c1[N+](=O)[O-]` registered a melting point of 161 to 163 °C.
The molecule `C=CCNC(=O)c1ccc(Cl)nc1` returned a melting point of 105 to 107 °C.
The molecule `CC(C)(C)OC(=O)N1CCC(O)(C(F)(F)F)C1` (configuration not stated) had a melting point of 102 to 104 °C.
Molecule `Nc1cc(-c2ccncc2)n[nH]1` returned a melting point of 194 to 196 °C.
As for `CCOc1ccc(C(=O)c2ccccc2Cl)cc1`, the melting point fell in the range of 86 to 88 °C.
Under `O=c1cc2c(n[nH]1)CCCC2` stands 192 to 194 °C.
For the molecule `COc1ccc(N2CCCNC(=O)C2)cc1`, the melting point was in the range of 172 to 174 °C.
Turning to `Cc1cc(F)cc2c(Cl)c(C#N)cnc12`, the melting point is 137 to 139 °C.
`Cc1ccc2ccccc2c1S(=O)(=O)Cl` returned a melting point of 76 to 78 °C.
`O=C(O)c1cccc(CSc2c(Cl)cccc2Cl)c1` gave a melting point of 222 to 224 °C.
Turning to `O=C1CSC(c2ccc(F)cc2)N1C1CC1` (configuration not stated), the melting point lay within 225 to 227 °C.
`O=c1[nH]ncc2c[nH]nc12` yielded a melting point of 266 to 268 °C.
With `Cc1cnn(Cc2cc(C(=O)O)no2)c1` the figure was 163 to 165 °C.
In turn, `Nc1c(-c2ccco2)nc2ccccn12` had a melting point of 165 to 167 °C.
Under `O=C(O)c1cc(N=Nc2ccc(S(=O)(=O)Nc3ccccn3)cc2)ccc1O` stands 260 to 265 °C; under `O=[N+]([O-])c1cc(S(=O)(=O)N2CCOCC2)ccc1Cl`, 153 to 155 °C; under `COCC(C)NS(=O)(=O)c1ccc(Cl)c([N+](=O)[O-])c1` (configuration not stated), 209 to 211 °C.
In the case of `O=C1C(=O)N(Cc2ccccc2Cl)c2ccccc21`, the melting point lay within 130 to 132 °C.
Molecule `Nc1cccc(-c2n[nH]c3c2CCC3)c1` had a melting point of 168 to 170 °C.
Molecule `Clc1cc(Cl)c2c(n1)NCC2` returned a melting point of 149 to 151 °C.
`CN1CC(=O)NC(=O)C1`: the melting point lay in the range of 99 to 101 °C.
With `O=C1CCCN1c1ccc(O)cc1`, the melting point is 159 to 161 °C.
With `O=[N+]([O-])c1[nH]cnc1-c1ccc(F)cc1` the figure was 290 to 292 °C; with `NC(=O)c1c(NC(=O)CCC(=O)O)sc2c1CCC2`, 231 to 233 °C; with `CCn1nnc2cc(C(=O)O)ccc21`, 228 to 230 °C.
`Nc1ccccc1C(=O)NCCCN1CCOCC1`: the melting point is 194 to 198 °C.
The molecule `COC(=O)c1cc(Br)ccc1S(=O)(=O)Cl` registered a melting point of 66 to 70 °C.
For the molecule `CC(C)C1CNC(=O)C1` (configuration not stated), the melting point lay in the range of 98 to 100 °C.
`CC(=O)c1ccc(S(=O)(=O)N2CCCCCC2)cc1` yielded a melting point of 73 to 77 °C.
Molecule `Nc1cncnc1-c1ccccc1` came in with a melting point of 115 to 117 °C.
In turn, `Cc1ccc2cc(CCl)c(Cl)nc2c1` returned a melting point of 132 to 134 °C.
The molecule `O=[N+]([O-])c1ccc(Cn2ccnc2)cc1` showed a melting point of 39 to 41 °C.
With `CC(C)(C)n1ccnc1SCC(=O)O` the figure was 174 to 176 °C.
The molecule `Cc1nnc(CN)s1` yielded a melting point of 76 to 78 °C.
For the molecule `O=S(=O)(c1cccc(F)c1)N1CCNCC1`, the melting point fell in the range of 97 to 99 °C.
Consider `Cn1c(Cl)nc2ccccc21`, for which the melting point lay in the range of 111 to 113 °C.
With `Clc1ccc(Br)cc1CBr` the figure was 71 to 73 °C.
With `CCOC(=O)Cc1cccc(C#N)c1`, the melting point lay within 47 to 49 °C.
Molecule `O=C1CC2(CCCCC2)CC(=O)O1` showed a melting point of 210 to 214 °C.
Under `CCOC(=O)NC(=N)N` stands 104 to 106 °C.
Under `[N-]=[N+]=NC(=O)c1ccco1` stands 60 to 62 °C.
Under `O=C(c1c[nH]c2ccccc12)C(Cl)c1ccccc1` (configuration not stated) stands 124 to 126 °C.
Turning to `Cc1nc2sccn2c1C(N)=S`, the melting point lay in the range of 232 to 234 °C.
Molecule `COC(=O)Nc1ccc(CN)cc1` yielded a melting point of 103 to 105 °C.
